The test system of data set [1] is MDA-MB-231 breast adenocarcinoma cells. To be noted: MDA-MB-231 cells; for TRAIL sensitizing activity: compound 4 h, then TRAIL 20 h (Fig. 4).
The next data set concerns the target BIR2 domain of XIAP (Homo sapiens, UniProt P98170). To be noted: from Ki values.

Sequence of BIR2 domain of XIAP (P98170 124-240 limits assumed): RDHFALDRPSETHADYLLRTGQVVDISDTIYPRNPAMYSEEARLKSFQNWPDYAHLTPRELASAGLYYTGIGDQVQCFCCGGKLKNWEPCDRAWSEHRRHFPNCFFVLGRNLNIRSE

In the case of `CN[C@@H](C)C(=O)N[C@H](C(=O)N1CCC[C@H]1C(=O)N[C@@H]1CCCc2ccccc21)C(C)C` [Compound 9f], the TRAIL sensitizing activity result in data set [1] is listed as “strong TRAIL sensitizing activity”. In the case of “TRAIL: apoptosis-inducing agent added to MDA-MB-231 cells at varying concentrations”, the “LD50 of TRAIL” value in data set [1] (TRAIL alone) was “could not be achieved”. For `CN[C@@H](C)C(=O)N[C@H](C(=O)N1CCC[C@H]1C(=O)NNc1ccccc1)C(C)C` [Compound 9j], the “selectivity for BIR2 vs. BIR3” value on BIR2 domain of XIAP is listed as “three-fold selective”. For the same molecule, in data set [1], the TRAIL sensitizing activity result is on record as “slightly less potent”.

(Values after PMC3440873 (Bioorganic & medicinal chemistry letters, 2011).)
